# Data published in article PMC7311426, “An amphipathic peptide with antibiotic activity against multidrug-resistant Gram-negative bacteria” (Nature Communications, 2020).
# Read-outs that look alike come from different tables or passages of the source.
# How the values were obtained:
# Assay in all cases: microbe, parasite or virus in culture
# [1] = tested on: A. baumannii clinical isolates
# In short: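 MIC90 from CLSI broth microdilution (M07-A9) in two clinical-isolate panels. US panel (331 isolates, 2010-2012): AA139 diluted in 0.01% acetic acid/0.1% BSA. Worldwide panel (445 isolates, 2011-2013, four regions): CAMHB, with 0.002% Tween 80 added for AA139 and polymyxin B.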
# [2] = tested on: S. aureus
# In short: (§1)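 Broth microdilution in MHB, 2-fold 12-point series from 128 or 64 down to 0.06 or 0.03 μg mL^−1, 5 × 10^5 CFU mL^−1. Extra runs in CAMHB per CLSI and in MHB with 1% agarose; n ≥ 6.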
# [3] = tested on: K. pneumoniae; conditions: Klebsiella pneumoniae
# In short: as §1
# [4] = tested on: E. coli; conditions: Escherichia coli
# In short: as §1
# [5] = tested on: S. enterica Typhi; conditions: Salmonella enterica, ATCC14028 / TYPHI, read-out: BMD MIC
# In short: as §1
# [6] = tested on: P. aeruginosa; conditions: Pseudomonas aeruginosa
# In short: as §1
# [7] = A. baumannii, worldwide isolates 2011-2013, n = 108
compound,measurement,setting,value
"C[C@@H](O)[C@H]1C(=O)N2C(C(=O)O)=C(S[C@@H]3CN[C@H](C(=O)N(C)C)C3)[C@H](C)[C@H]12 [Meropenem, meropenem, reference compound]",Number of isolates with MIC 0.125 (MIC frequency distribution),[1],4
same,MIC50,[1]; [7],> 16 µg/mL
same,MIC90,[1]; [7],> 16 µg/mL
same,Number of isolates with MIC 0.03 (MIC frequency distribution),"[1]; A. baumannii, worldwide isolates 2011-2013, n = 108, count of isolates at MIC 0.03",0
same,Number of isolates with MIC 0.06 (MIC frequency distribution),"[1]; A. baumannii, worldwide isolates 2011-2013, n = 108, count of isolates at MIC 0.06",1
same,Number of isolates with MIC 0.25 (MIC frequency distribution),"[1]; A. baumannii, worldwide isolates 2011-2013, n = 108, count of isolates at MIC 0.25",10
same,Number of isolates with MIC 0.5 (MIC frequency distribution),"[1]; A. baumannii, worldwide isolates 2011-2013, n = 108, count of isolates at MIC 0.5",2
same,Number of isolates with MIC 1 (MIC frequency distribution),"[1]; A. baumannii, worldwide isolates 2011-2013, n = 108, count of isolates at MIC 1",1
same,Number of isolates with MIC 2 (MIC frequency distribution),"[1]; A. baumannii, worldwide isolates 2011-2013, n = 108, count of isolates at MIC 2",3
same,Number of isolates with MIC 4 (MIC frequency distribution),"[1]; A. baumannii, worldwide isolates 2011-2013, n = 108, count of isolates at MIC 4",2
same,Number of isolates with MIC 8 (MIC frequency distribution),"[1]; A. baumannii, worldwide isolates 2011-2013, n = 108, count of isolates at MIC 8",2
same,Number of isolates with MIC 16 (MIC frequency distribution),"[1]; A. baumannii, worldwide isolates 2011-2013, n = 108, count of isolates at MIC 16",1
same,Number of isolates with MIC 32 (MIC frequency distribution),"[1]; A. baumannii, worldwide isolates 2011-2013, n = 108, count of isolates at MIC 32",0
same,Number of isolates with MIC 64 (MIC frequency distribution),"[1]; A. baumannii, worldwide isolates 2011-2013, n = 108, count of isolates at MIC 64",0
same,Number of isolates with MIC 128 (MIC frequency distribution),"[1]; A. baumannii, worldwide isolates 2011-2013, n = 108, count of isolates at MIC 128",0
same,Number of isolates with MIC >16 (MIC frequency distribution),"[1]; A. baumannii, worldwide isolates 2011-2013, n = 108, count of isolates at MIC >16",82
same,Number of isolates with MIC >32 (MIC frequency distribution),"[1]; A. baumannii, worldwide isolates 2011-2013, n = 108, count of isolates at MIC >32",0
same,Number of isolates with MIC >128 (MIC frequency distribution),"[1]; A. baumannii, worldwide isolates 2011-2013, n = 108, count of isolates at MIC >128",0
same,Number of isolates with MIC ≤0.015 (MIC frequency distribution),"[1]; A. baumannii, worldwide isolates 2011-2013, n = 108, count of isolates at MIC ≤0.015",0
same,MIC90,[1]; Acinetobacter baumannii,> 16 µg/mL
same,MIC90,"[1]; US isolates 2010–2012, A. baumannii MDR, n = 19",>16 µg/mL
same,MIC90,"[1]; US isolates 2010–2012, A. baumannii XDR, n = 31",>16 µg/mL
same,BMD MIC,"[2]; S. aureus ATCC 25923 MSSA, CAMHB, mode of 6 replicates",0.06 µg/mL
same,MIC,"[2]; Staphylococcus aureus, ATCC25923 / MSSA, read-out: BMD MIC",0.06 µg/mL
same,MIC,"[3]; ATCC13883, read-out: BMD MIC, K. pneumoniae ATCC 13883 type strain (polymyxin/colistin heteroresistant), MHB, mode of 6 replicates",≤ 0.25 µg/mL
same,MIC,"[3]; ATCC700603, read-out: BMD MIC, K. pneumoniae ATCC 700603 (K6), MDR, OXA-2/SHV-18, CAMHB, mode of 6 replicates",0.06 µg/mL
same,MIC,"[3]; ATCC700603, read-out: BMD MIC, K. pneumoniae ATCC 700603 (K6), MDR, OXA-2/SHV-18, MHB, mode of 6 replicates",≤ 0.25 µg/mL
same,MIC,"[3]; BAA2146, read-out: BMD MIC, K. pneumoniae BAA-2146, MDR, ESBL, NDM-1 pos, MHB, mode of 6 replicates",> 32 µg/mL
same,MIC,"[3]; read-out: BMD MIC, K. pneumoniae Greece CI 8_GR_13, XDR, KPC-2, PmxR, MHB, mode of 6 replicates",> 32 µg/mL
same,MIC,"[3]; read-out: MIC, broth microdilution, K. pneumoniae 3010 spontaneous mutant, AA139 selection 4X, plate 1, colony 1, drug-free passage 1",0.03 µg/mL
same,MIC,"[3]; read-out: MIC, broth microdilution, K. pneumoniae 3010 spontaneous mutant, AA139 selection 4X, plate 1, colony 1, drug-free passage 5",0.015 µg/mL
same,MIC,"[3]; read-out: MIC, broth microdilution, K. pneumoniae 3010 spontaneous mutant, AA139 selection 8X, plate 1, colony 1, drug-free passage 1",0.03 µg/mL
same,MIC,"[3]; read-out: MIC, broth microdilution, K. pneumoniae 3010 spontaneous mutant, AA139 selection 8X, plate 1, colony 1, drug-free passage 5",0.03 µg/mL
same,MIC,"[3]; read-out: MIC, broth microdilution, K. pneumoniae ST258 spontaneous mutant, AA139 selection 4X, plate 1, colony 1, drug-free passage 1",> 4 µg/mL
same,MIC,"[3]; read-out: MIC, broth microdilution, K. pneumoniae ST258 spontaneous mutant, AA139 selection 4X, plate 1, colony 1, drug-free passage 5",> 4 µg/mL
same,MIC,"[4]; ATCC25922, read-out: BMD MIC, E. coli ATCC 25922 FDA control strain, CAMHB, mode of 6 replicates",≤ 0.06 µg/mL
same,MIC,"[4]; ATCC25922, read-out: BMD MIC, E. coli ATCC 25922 FDA control strain, MHB, mode of 6 independent biological replicates",0.015 µg/mL
same,MIC,"[4]; ATCC700926 / MG1655, read-out: BMD MIC",≤ 0.03 µg/mL
same,MIC,"[4]; ATCC700928, read-out: BMD MIC, E. coli ATCC 700928 CFT073 UPEC, CAMHB, mode of 6 replicates",≤ 0.25 µg/mL
same,MIC,[4]; read-out: BMD MIC,≤ 0.25 µg/mL
same,MIC,"[4]; read-out: MIC against E. coli AID#172 MDR clinical isolate, BMD",0.125 µg/mL
same,MIC,"[4]; read-out: MIC against ESBL producing E. coli DSA 443, BMD",0.032 µg/mL
same,MIC,"[4]; read-out: MIC, broth microdilution, E. coli AUD172 parent strain not exposed to drug",0.015 µg/mL
same,MIC,"[4]; read-out: MIC, broth microdilution, E. coli AUD172 spontaneous mutant, AA139 selection 4X, plate 2, colony 2, drug-free passage 1",0.015 µg/mL
same,MIC,"[4]; read-out: MIC, broth microdilution, E. coli AUD172 spontaneous mutant, AA139 selection 4X, plate 2, colony 2, drug-free passage 5",0.03 µg/mL
same,MIC,[5],0.125 µg/mL
same,MIC,"[6]; ATCC27853, read-out: BMD MIC, P. aeruginosa ATCC 27853 control strain, CAMHB, mode of 6 replicates",≤ 0.25 µg/mL
same,MIC,"[6]; ATCC27853, read-out: MIC, broth microdilution, P. aeruginosa ATCC 27853 spontaneous mutant, AA139 selection 4X, plate 1, colony 1, drug-free passage 1",0.25 µg/mL
same,MIC,"[6]; ATCC27853, read-out: MIC, broth microdilution, P. aeruginosa ATCC 27853 spontaneous mutant, AA139 selection 4X, plate 1, colony 1, drug-free passage 5",0.5 µg/mL
same,MIC,"[6]; ATCC27853, read-out: MIC, broth microdilution, P. aeruginosa ATCC 27853 spontaneous mutant, AA139 selection 4X, plate 1, colony 2, drug-free passage 1",0.5 µg/mL
same,MIC,"[6]; ATCC27853, read-out: MIC, broth microdilution, P. aeruginosa ATCC 27853 spontaneous mutant, AA139 selection 4X, plate 1, colony 2, drug-free passage 5",0.25 µg/mL
same,MIC,"[6]; ATCC27853, read-out: MIC, broth microdilution, P. aeruginosa ATCC 27853 spontaneous mutant, AA139 selection 4X, plate 1, colony 3, drug-free passage 1",1 µg/mL
same,MIC,"[6]; ATCC27853, read-out: MIC, broth microdilution, P. aeruginosa ATCC 27853 spontaneous mutant, AA139 selection 4X, plate 1, colony 3, drug-free passage 5",0.5 µg/mL
same,MIC,"[6]; ATCC27853, read-out: MIC, broth microdilution, P. aeruginosa ATCC 27853 spontaneous mutant, AA139 selection 4X, plate 1, colony 4, drug-free passage 1",1 µg/mL
same,MIC,"[6]; ATCC27853, read-out: MIC, broth microdilution, P. aeruginosa ATCC 27853 spontaneous mutant, AA139 selection 4X, plate 1, colony 4, drug-free passage 5",0.5 µg/mL
same,MIC,"[6]; ATCC27853, read-out: MIC, broth microdilution, P. aeruginosa ATCC 27853 spontaneous mutant, AA139 selection 4X, plate 1, colony 5, drug-free passage 1",0.25 µg/mL
same,MIC,"[6]; ATCC27853, read-out: MIC, broth microdilution, P. aeruginosa ATCC 27853 spontaneous mutant, AA139 selection 4X, plate 1, colony 5, drug-free passage 5",0.5 µg/mL
same,MIC,"[6]; ATCC27853, read-out: MIC, broth microdilution, P. aeruginosa ATCC 27853 spontaneous mutant, AA139 selection 4X, plate 1, colony 6, drug-free passage 1",0.5 µg/mL
same,MIC,"[6]; ATCC27853, read-out: MIC, broth microdilution, P. aeruginosa ATCC 27853 spontaneous mutant, AA139 selection 4X, plate 1, colony 6, drug-free passage 5",0.5 µg/mL
same,MIC,"[6]; ATCC27853, read-out: MIC, broth microdilution, P. aeruginosa ATCC 27853 spontaneous mutant, AA139 selection 4X, plate 2, colony 1, drug-free passage 1",0.25 µg/mL
